# Test results from patent US5212189A, “Thiadiazole or oxadiazole analogs of fenamic acids containing substituted hydroxamate side chains as antiinflammatory agents” (Warner-Lambert Company, priority 1991, dated 1993).
# Where two headings read alike, the source gives them in different places.
# What was measured:
# 5-lipoxygenase = biological target: T1, 5-lipoxygenase (Rattus norvegicus, UniProt P12527); assay: ARBL whole cell 5-lipoxygenase assay: inhibition of LTB4 formation in A23187-stimulated RBL-1 cells; format: cell-based; conditions: RBL-1 whole cells; for IC50: RIA of LTB4
# T1 construct: host or cells: RBL-1 (rat basophilic leukemia)
# T1 sequence (P12527 1-673): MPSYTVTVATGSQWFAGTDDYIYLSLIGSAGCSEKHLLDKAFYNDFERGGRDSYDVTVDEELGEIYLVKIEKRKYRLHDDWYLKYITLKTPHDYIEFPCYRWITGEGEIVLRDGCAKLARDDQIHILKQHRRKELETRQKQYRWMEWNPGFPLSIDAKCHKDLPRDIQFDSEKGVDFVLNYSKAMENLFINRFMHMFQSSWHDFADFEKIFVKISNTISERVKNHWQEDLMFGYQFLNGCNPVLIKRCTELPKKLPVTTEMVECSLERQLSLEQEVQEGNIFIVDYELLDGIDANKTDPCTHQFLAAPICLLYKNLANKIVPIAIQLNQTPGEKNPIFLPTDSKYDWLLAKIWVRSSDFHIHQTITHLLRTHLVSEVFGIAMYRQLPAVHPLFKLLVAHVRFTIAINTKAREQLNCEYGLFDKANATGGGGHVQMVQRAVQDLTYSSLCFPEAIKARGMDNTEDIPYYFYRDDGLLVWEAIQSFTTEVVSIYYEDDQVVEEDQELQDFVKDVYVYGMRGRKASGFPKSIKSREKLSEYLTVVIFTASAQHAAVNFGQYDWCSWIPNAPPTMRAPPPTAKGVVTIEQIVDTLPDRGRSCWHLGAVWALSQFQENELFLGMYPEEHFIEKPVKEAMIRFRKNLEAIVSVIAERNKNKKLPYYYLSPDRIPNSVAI
# Description: (§1) ARBL/ARBC WHOLE CELL 5-LIPOXYGENASE AND CYCLOOXYGENASE ASSAYS
# (§2) The rat basophilic leukemia cell line (RBL-1) was obtained from the American Type Culture Collection (Rockville, MD).
# (§3) Radioimmunoassay (RIA) kits of LTB4 and PGF2α were obtained from Amersham (Arlington Heights, Ill.) and Seragen (Boston, Mass.), respectively.
# (§4) RBL-1 cells are grown in suspension culture in Eagle's minimum essential medium supplemented with 12% fetal bovine serum at 37° C. in an incubator supplied with air 5% carbon dioxide. Cells are harvested by centrifugation. They are washed with cold phosphate-buffered saline, pH 7.4 (PBS; NaCl, 7.1 g; Na2 HPO4, 1.15 g; KH2 PO4, 0.2 g; and KCl, 0.2 g/L). Cells are finally suspended in PBS containing 1.0 mM calcium at a density of 2 × 10^6 cells/mL Cells are incubated and without test agent (in DMSO) (1% DMSO is without effect on arachidonic acid metabolism) for 10 minutes at room temperature. Calcium ionophore A23187 (5 μM) is added and cells are incubated for 7 minutes at 37° C. The reaction is stopped by chilling the tubes on ice for 10 minutes. Cells are separated by centrifugation and the supernatant is stored at -20° C. Aliquots (100 μL) are analyzed for LTB4 and PGF2α using radioimmunoassay kits as provided by the supplier.
# (§5) Table 1 contains biochemical data for compounds of Formula I obtained from this whole cell assay as amount of inhibition at 10 μM or IC50 s which are calculated as the concentration of a test compound in micromoles (μM) causing 50% inhibition of LTB4 or PGF2α formation.
# cyclooxygenase = biological target: T2, cyclooxygenase (Rattus norvegicus, UniProt Q63921); assay: ARBC whole cell cyclooxygenase assay: inhibition of PGF2α formation in A23187-stimulated RBL-1 cells; format: cell-based; conditions: RBL-1 whole cells; for IC50: RIA of PGF2α
# T2 construct: host or cells: RBL-1 (rat basophilic leukemia)
# T2 sequence (Q63921 27-602): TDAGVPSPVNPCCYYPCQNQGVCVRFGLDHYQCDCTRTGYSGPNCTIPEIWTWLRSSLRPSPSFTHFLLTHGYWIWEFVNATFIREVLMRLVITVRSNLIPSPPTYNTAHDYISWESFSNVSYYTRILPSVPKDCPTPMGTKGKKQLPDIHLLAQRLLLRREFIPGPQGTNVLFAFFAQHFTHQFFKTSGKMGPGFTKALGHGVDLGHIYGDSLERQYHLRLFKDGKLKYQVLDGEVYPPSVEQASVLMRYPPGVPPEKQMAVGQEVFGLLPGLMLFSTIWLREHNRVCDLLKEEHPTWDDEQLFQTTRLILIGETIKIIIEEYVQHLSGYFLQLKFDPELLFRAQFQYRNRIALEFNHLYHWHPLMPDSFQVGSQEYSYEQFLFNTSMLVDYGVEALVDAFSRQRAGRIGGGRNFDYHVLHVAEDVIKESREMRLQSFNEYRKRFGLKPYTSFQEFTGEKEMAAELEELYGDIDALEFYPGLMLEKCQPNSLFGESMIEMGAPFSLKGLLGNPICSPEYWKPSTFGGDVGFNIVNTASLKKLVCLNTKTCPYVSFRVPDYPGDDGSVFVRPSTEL
# Description: as §1, §2, §3, §4, §5
# [1] = read-out: ARBL, amount of inhibition of LTB4 at 10 μM
# [2] = read-out: ARBC, inhibition of PGF2α at 10 μM (class symbol)
# [3] = read-out: ARBL, inhibition of LTB4 at 10 μM (class symbol)
Compound,IC50 (5-lipoxygenase),IC50 (cyclooxygenase),inhibition at 10 µM (cyclooxygenase; [2]),other results
"CC(=O)N(O)C(C)c1cccc(Nc2ccccc2-c2n[nH]c(=S)o2)c1C (stereo not shown) [Example 8, N-[1-[3-[[2-(4,5-dihydro-5 thioxo 1,3,4-oxadiazol-2 yl)phenyl]amino]-2 methylphenyl]ethyl]-N-hydroxyacetamide]",,,< 40%,inhibition at 10 µM (5-lipoxygenase; [1]): 66%
"CC(=O)N(O)C(C)c1c(C)ccc(Nc2ccccc2-c2n[nH]c(=S)o2)c1C (stereo not shown) [Example 9, N-[1-[3-[[2-(4,5-dihydro-5-thioxo 1,3,4-oxadiazol-2 yl)phenyl]amino]-2,6 dimethylphenyl]ethyl]-N-hydroxyacetamide]",5.93 µM,> 10 µM,,
"CC(=O)N(O)C(C)c1cccc(Nc2ccccc2-c2n[nH]c(=S)o2)c1 (stereo not shown) [Example 10, N-[1-[3-[[2-(4,5-dihydro-5-thioxo-1,3,4-oxadiazol-2-yl)phenyl]amino]phenyl]ethyl]-N-hydroxyacetamide]",,,< 40%,inhibition at 10 µM (5-lipoxygenase; [3]): < 40%
"CNC(=O)N(O)C(C)c1cccc(Nc2ccccc2-c2n[nH]c(=S)o2)c1Cl (stereo not shown) [Example 12, N-[1-[2-chloro-3-[[(4,5-dihydro-5-thioxo-1,3,4-oxadiazol-2-yl)phenyl]amino]phenyl]ethyl]-N-hydroxy-N'-methylurea]",,,,"inhibition at 10 µM (5-lipoxygenase; [3]): < 40%; inhibition at 10 µM (cyclooxygenase; read-out: ARBC, amount of inhibition of PGF2α at 10 μM): 100%"
"CC(=O)N(O)C(C)c1cccc(Nc2ccccc2-c2n[nH]c(=O)o2)c1 (stereo not shown) [Example 14, N-[1-[3-[[2-(4,5-dihydro-5-oxo-1,3,4-oxadiazol-2-yl)phenyl]amino]phenyl]ethyl]-N-hydroxyacetamide]",,,< 40%,inhibition at 10 µM (5-lipoxygenase; [1]): 100%
"CC(=O)N(O)C(C)c1cccc(Nc2ccccc2-c2nnc(N)o2)c1Cl (stereo not shown) [Example 17, N-[1-[3-[[2-(5-Amino-1,3,4-oxadiazol-2-yl)phenyl]amino]-2-chlorophenyl]ethyl]-N-hydroxyacetamide]",,,< 40%,inhibition at 10 µM (5-lipoxygenase; [1]): 100%

# Continued, in another order:
IC50 (5-lipoxygenase),IC50 (cyclooxygenase),inhibition at 10 µM (cyclooxygenase; [2]),Compound,other results
9.59 µM,1.07 µM,,"CC(=O)N(O)C(C)c1cccc(Nc2ccccc2-c2n[nH]c(=S)o2)c1Cl (stereo not shown) [Example 7, N-[1-[3-[[2-(4,5-Dihydro-5-thioxo-1,3,4 oxadiazol-2-yl)phenyl]amino]-2-chlorophenyl]ethyl]-N-hydroxy Acetamide]",
1.14 µM,0.91 µM,,"CCOC(=O)N(O)C(C)c1cccc(Nc2ccccc2-c2n[nH]c(=S)o2)c1Cl (stereo not shown) [Example 11, Ethyl ester of [1-[2-chloro-3-[[2-(4,5-dihydro-5-thioxo-1,3,4 oxadiazol-2-yl)phenyl]amino]phenyl]-ethyl]hydroxycarbamic acid]",
0.68 µM,1.88 µM,,CC(=O)N(O)C(C)c1cccc(Nc2ccccc2-c2n[nH]c(=O)o2)c1Cl (stereo not shown) [Example 13],
1.09 µM,0.86 µM,,"CCOC(=O)N(O)C(C)c1cccc(Nc2ccccc2-c2n[nH]c(=O)o2)c1Cl (stereo not shown) [Example 15, Ethyl ester of [1-[2-chloro-3-[[2-(4,5-dihydro-5-oxo-1,3,4-voxadiazol-2-yl)phenyl]amino]phenyl]-ethyl]hydroxycarbamic acid]",
1.87 µM,0.36 µM,,CNC(=O)N(O)C(C)c1cccc(Nc2ccccc2-c2n[nH]c(=O)o2)c1Cl (stereo not shown) [Example 16],
